In a melting point compilation (Tetko et al.; mined from patent text by program, amines drawn as free bases though some values may be those of a salt) one finds melting point data, which are given here for 83 molecules.

Each structure is given as a SMILES string. Residues, ends and D or L forms follow the SMILES beside them. *: point of attachment. Boc = CC(C)(C)OC(=O)*; NHNH2 = NN*

By melting point is commonly meant the temperature of the solid-liquid transition. As to `CCc1nccn1-c1ccccc1C(=O)Nc1ccc(C(=O)N2CCC(F)(F)/C(=C\C(=O)NC3CC3)c3ccccc32)cc1`, the melting point was above 260 °C.
In turn, `CN[C@@H](Cc1ccc(C(F)(F)F)cc1)[C@H](O)c1ccc(F)cc1` (racemic) showed a melting point of 79 to 80 °C.
Turning to `O=[N+]([O-])c1ccc(Oc2ccccc2)c(Cl)c1Oc1ccccc1`, the melting point was 106 to 107 °C.
Molecule `FC(F)(F)Sc1cc(-c2ccccc2)c(-c2ccccc2)[nH]1` displayed a melting point of 58 to 59 °C.
For `CS(=O)c1ccc(-c2ccc(C=C(Cl)Cl)s2)cc1` (stereo not drawn) the value was 124 to 126 °C; for `Cc1nnc(NC(=O)c2sccc2S(=O)(=O)Nc2onc(C)c2Cl)s1`, 192 to 194 °C.
For `Cc1ccccc1-c1cc(-c2ccccc2C(=O)O)on1`, the melting point is 162 to 164 °C.
For `COc1cccc(-c2ccc3c(c2)CC[C@H]2N(C)C(=O)CC[C@]32C)c1`, the melting point is 140 °C.
For `CCOC(=O)C(Oc1cc(N)c(Cl)cc1C(=O)NCCN(CC)CC)c1ccccc1` (stereo not drawn) the value was 84 to 87 °C; for `COc1ccc(CS[C@H]2C[C@@H](C(=O)O)N(C(=O)OCc3ccc([N+](=O)[O-])cc3)C2)cc1`, 96 to 98 °C; for `O=C(O)c1cn(C2CC2)c2nc(O)c(F)cc2c1=O`, 325 to 327 °C.
As for `CC(C)(C)COc1cccc(C[C@@H](NC(=O)c2ccc(F)c3ccccc23)[C@@H](O)c2cccc(Cl)c2)c1` (racemic), the figure is 165 to 166 °C; as for `Cc1nc(NC(=O)c2ccccc2)sc1C(=O)NCc1ccccc1C(F)(F)F`, 198 to 199 °C; as for `CCOC(=O)c1ccc(C(=O)CCc2ccc(S(C)(=O)=O)cc2)cc1`, 118 to 120 °C.
Take `CCSc1c(CO)nc(C)n1Cc1ccc(-c2ccccc2C(=O)O)cc1`: the melting point is 205 °C.
Consider `COC(=O)c1cc(Cl)ccc1-n1c(CCl)nc2ccccc2c1=O`, for which the melting point lay in the range of 135 to 136 °C.
As for `CC1(C)C(=O)Nc2cc3[nH]c(-c4cccs4)nc3cc21`, the figure is 332 to 336 °C; as for `O=C(Nc1ccc2nc(CN3CCOCC3)ccc2c1)c1ccc(-c2ccc(Cl)cc2)cc1`, 236 to 238 °C; as for `CCCCCCCCc1ccc(C(=O)CBr)cc1`, 33 to 34 °C.
With `COc1ccc(C(=O)O[Si](C)(C)C)cc1`, the melting point fell in the range of 60 to 61 °C.
Molecule `O=C(c1ccc(Nc2ccnc3cc(C(F)(F)F)ccc23)cc1)N1CCN(c2c(Cl)c(Cl)nc(Cl)c2Cl)CC1` yielded a melting point of 222 to 224 °C.
As for `CCCc1nc2c(N)nc3cc(-c4ccccc4NC(C)=O)ccc3c2s1`, the figure is 206 to 209 °C; as for `COc1cc(COc2nn(-c3ccccc3)cc2/C=C/C(=O)O)ccc1OCc1nc(-c2ccccc2)oc1C`, 188 to 189 °C.
For `CCOC(=O)c1c(C)n(C(=O)c2ccccc2)c2ccc(Oc3nc(OC)cc(OC)n3)c(C(=O)O)c12` the value was 113 to 115 °C; for `O=CCN1C(=O)c2ccccc2C1=O`, 114 °C.
As to `O=C(Nc1cccnn1)N1CCN(c2nccc(-c3cc(F)cc(F)c3)n2)CC1`, the melting point lay within 270 to 271 °C.
As for `COc1cc2nc(N)nc(-c3cc(Br)c(C)cc3Br)c2cc1OC`, the figure is 282 to 284 °C; as for `CC1(C)CC(n2cncc2C(=O)O)c2ccccc2O1` (stereo not drawn), 246 °C.
For `CCCCCCCCCCCCOCCCNC(=O)c1cc(OCC(=O)O)c2ccccc2c1O` the value was 150 °C; for `Nc1cccc(Oc2cc(Oc3cccc(N)c3)cc(C(F)(F)F)c2)c1`, 98 to 98.6 °C; for `Nc1nc(CCCCN2CCN(c3ncccn3)CC2)cs1`, 101 to 104 °C.
As for `CC1(C)CCC(C)(C)c2cc(C(=O)c3cccc(I)c3)ccc21`, the figure is 130 to 131 °C.
`CC(c1oc2ccccc2c(=O)c1-c1cccc(F)c1)n1nc(-c2cccc(OC(F)(F)F)c2)c2c(N)ncnc21` (stereo not drawn) displayed a melting point of 155 to 157 °C.
For `O=C(O)c1ccc(NCc2cccc([N+](=O)[O-])c2)cc1O` the value was 189 °C.
As for `O=S1(=O)CCN(c2nc3c(-c4nc(C5CC5)no4)ncn3c3ccccc23)CC1`, the figure is 328 to 335 °C; as for `COc1ccc(N2CCN(CC[C@H]3CC[C@H](NC(=O)N(C)C)CC3)CC2)c(Cl)c1Cl`, 196 to 198 °C; as for `CN(C)C(=O)n1nc(N(C)C)c2ccc(Cl)cc21`, 65 to 66 °C.
For `CC(C)(C)c1ccc(CN(O)Cc2ccc(C(C)(C)C)cc2)cc1` the value was 108 to 110 °C; for `CC(C)(C)c1ccc(CC2OCCN(Cc3ccccc3)C2=O)cc1` (stereo not drawn), 190 to 193 °C; for `Cc1onc(-c2ccccc2)c1-c1[nH]c2ccccc2c1CCC(=O)N(C)C`, 174 to 177 °C.
`CC(C)CC(NC(=O)OC(C)(C)C)C(=O)NCC(=O)NCC(=O)NC(C)C(=O)NCC(=O)NN` (stereo not drawn) (Boc-LGGAG-NHNH2; configuration not given here): the melting point lay in the range of 174 to 176 °C.
As for `Cc1ccc(Cc2cnc(NCCCCNc3ncc(Cl)cc3C)[nH]c2=O)cn1`, the figure is 202 to 203 °C.
For `COc1ccc(C(=O)NCc2ccc3c(c2)C(=O)N(C2CCC(=O)NC2=O)C3=O)cc1` (stereo not drawn) the value was 215 to 217 °C; for `Nc1ccc(CCC(=O)c2ccc(F)cc2)cc1`, 54 to 55 °C; for `CC(C(=O)OCC(c1cccc(C(F)(F)F)c1)N1CCNCC1)c1ccc2c(c1)CC(C(C)C)C2` (stereo not drawn), 56 to 58 °C.
For `Cc1oc(-c2ccccc2)nc1COc1ccc(OCc2ccccc2)cc1` the value was 126 to 127 °C.
Molecule `O=C(C(=Cc1ccc([N+](=O)[O-])cc1)c1ccccc1)c1ccc(O)cc1` displayed a melting point of 153 to 157 °C.
As for `COC(=O)C1=C(C)NC(C)=C(C(=O)OCC2CCC(=O)O2)C1c1ccccc1[N+](=O)[O-]` (stereo not drawn), the figure is 132 to 134 °C; as for `COC(=O)c1cc2cc(OC)c(OC)cc2c(-c2ccnc(-n3c(=O)ccc4ccccc43)c2)c1C(=O)OC`, above 230 °C; as for `COCCCOc1cc(C[C@@H](C(=O)N2C(=O)OC[C@H]2Cc2ccccc2)C(C)C)ccc1OC`, 55 to 56 °C.
In the case of `NC(CCCCNC(=O)NC(Cc1c[nH]c2ccccc12)C(=O)O)C(=O)O` (stereo not drawn), the melting point was 133 °C.
As for `COc1ccc2nc(NC(=O)C(CC3CCCC3)c3ccc(S(=O)(=O)N(C(C)C)C(C)C)cc3)sc2n1` (stereo not drawn), the figure is 83 to 85 °C; as for `OC(CCC(O)(C(F)(F)F)C(F)(F)F)(C(F)(F)F)C(F)(F)F`, 96 to 98 °C.
As for `CC(C)(C)OC(=O)N1C2C=CC(C2)N1CC(O)C(Cc1ccccc1)NC(=O)OCc1ccccc1` (mixture of isomers), the figure is 111 to 113 °C; as for `COc1cc(OC2CCN(Cc3cccnc3)CC2)ccc1CC(=O)N1CCN(c2ccccc2C)CC1C(N)=O` (stereo not drawn), 78 to 81 °C.
For `FC(F)(F)c1nnc(Cl)c2cc3ccccn3c12`, the melting point was 245 to 246 °C.
For `CC(C)(C)NC(=O)c1nn(-c2ccc([N+](=O)[O-])cc2)c2c1C1CCC2C1` (stereo not drawn) the value was 224 to 226 °C; for `CC1(C)C=C(c2ccccn2)c2cc(-c3ccccc3)ccc2OC1`, 115 to 120 °C.
For `O=C1c2ccc(OCCn3ccnc3)cc2CCC1Cc1ccc(Br)cc1` (stereo not drawn) the value was 129 to 130 °C.
As for `O=C(O)c1csc(-c2ccc(Cl)cc2)n1`, the figure is 189 to 190 °C; as for `O=S1(=O)NC(C23CC4CC(CC(C4)C2)C3)Nc2c(Br)cc(Br)cc21` (stereo not drawn), 270 to 273 °C.
Molecule `CC(C)C[C@H]1C[C@]2(O)C[C@@H](OC2=O)[C@@H]1OC(=O)c1ccccc1` yielded a melting point of 71 to 72 °C.
For `O=c1[nH]ncc2[nH]c(-c3ccc(OC(F)F)c(OC4CC4)c3)c(C3CC3)c12` the value was 248 to 249 °C.
As for `CC(C)(C)c1nc(-c2ccc(F)cc2)c(-c2ccc(S(C)(=O)=O)cc2)o1`, the figure is 130 to 131 °C; as for `CCOC(=O)c1cccc(CSc2nc(-c3ccc(OC)cc3)c(-c3ccc(OC)cc3)[nH]2)c1`, 147 to 149 °C; as for `CCCCn1c(COCC)nc2c(N)nc3ccc(-c4ccccc4)cc3c21`, 186 to 187 °C.
For `CN1C(=O)C(=O)N(Cc2ccccc2)CC1(CCO)c1ccc(Cl)c(Cl)c1` (stereo not drawn) the value was 198 °C; for `Cn1nnnc1SCCCC(=O)c1ccccc1`, 57.5 to 58 °C; for `N#CC(Cl)Cc1ccc(Cl)cc1C(=O)c1ccccc1Cl` (stereo not drawn), 102 to 103 °C.
Molecule `O=Cc1cccc2c1sc1cc3ccccc3cc12` displayed a melting point of 202 to 204 °C.
As for `CCOC(=O)c1[nH]c2sc(Cl)cc2c1Cl`, the figure is 166 to 167 °C.
For `CC(C(=O)Oc1cc(=O)n(-c2ccccc2)c2ncccc12)c1ccccc1` (stereo not drawn) the value was 166 to 168 °C; for `Cn1c(COc2ccc(CC3SC(=O)NC3=O)cc2)nc2ccc(OCCc3ccc(C(C)(C)C)c(NC(=O)Nc4ccc(C(F)(F)F)cc4)c3)cc21` (stereo not drawn), 165 to 167 °C; for `Cc1c(-c2cnc(C(N)=O)c3[nH]c4cc(NC5CCOC5)ccc4c23)cccc1N1Cc2ccc(Cl)cc2C1=O` (stereo not drawn), 115 °C.
In turn, `CC1(C)CC(C)(c2ccc(O)cc2)c2cc(O)ccc21` (stereo not drawn) showed a melting point of 202 °C.
For `CNS(=O)(=O)N1C[C@H](SC(c2ccccc2)(c2ccccc2)c2ccccc2)C[C@H]1COCc1ccccc1` the value was 140 to 142 °C; for `CN(C=O)c1ccccc1C(=O)COC(=O)c1ccccc1`, 100 to 102 °C; for `CN(C)C(=O)c1cnn(-c2ccccc2)c1Br`, 79 to 81 °C.
Molecule `CCN(CC)c1nc(C)nc2nc(-c3ccncc3)[nH]c12` came in with a melting point of 228 to 230 °C.
For `CCOCCCC1(O)c2ccccc2C=Cc2ccc(I)cc21` (stereo not drawn) the value was 95 to 105 °C.
For `CNC(=O)c1ccc(C=CC(=O)Nc2cccc(-c3ccc(C)c(COc4cccc5ccc(C)nc45)c3C)c2)cc1` the value was 234 to 238 °C.
Turning to `O=c1[nH]c2ccc(Br)cc2cc1[N+](=O)[O-]`, the melting point amounted to 276 °C.
For `Cc1ncc(C(=O)N2CC2C#N)s1` (stereo not drawn) the value was 90 to 92 °C.
